# Reference: patent US20070292488A1, “METHOD FOR TREATMENT OF WOUND TREATMENT USING AGANOCIDES” (priority 2006, published 2007)
# Tests used:
# [1] = tested on: test bacteria; test: Comparison of hypochlorous acid with Dakin's solution (antimicrobial activity, therapeutic index, time kill); settings: in the regimen described
# Description: “Time kill” refers to an in vitro measure of how fast a given antimicrobial can kill test bacteria.
# This means that the time to wound closure may be reduced using hypochlorous acid.
# [2] = tested on: human secondary intention wound; test: Vacuum-assisted wound treatment combined with intermittent instillation of aganocide (HOCl) on a human wound; format: in vivo; settings: 0.45% NaCl, pH about 4
# Procedure: A human secondary intention wound approximately 3-4 cm in diameter is fitted with a polyurethane sponge, pore size 400-600 microns cut to the size of the wound and twice the thickness of the wound and covered with an adhesive film, per instructions on the vacuum system. The outlet is connected to an IV bag (500 ml) with 0.01% HOCl, 0.45% NaCl, and pH of about 4 and is elevated to between 0.1 and 1 meter above the wound. A 1-cm hole is punctured in the adhesive film, and a second adhesive film is used to cover the hole, with the second outlet connected to the vacuum pump.
# Each cycle consists of three phases: a 2-hour pumping phase when the vacuum (125 mm Hg negative pressure) is connected and the IV bag is disconnected; […] and the IV bag is connected and the aganocide is applied to the wound; […] IV bag are disconnected.
# Each treatment has about 24 cycles and starts with a pumping phase and proceeds for 48 hours. When the treatment is completed, the dressings are changed and the treatment is repeated until full granulation has been promoted and the granulation tissue is within the level of the skin, approximately 30 to 100 days, depending on the depth of the original wound. […]
smiles,measurement,setting,value
OCl [hypochlorous acid],antimicrobial activity in comparison with Dakin's solution,[1],improved
same,therapeutic index in comparison with Dakin's solution,[1],improved
same,time kill in comparison with Dakin's solution,[1],improved
same,wound healing results of combination regimen compared with vacuum alone or aganocide alone,"[2]; Example 1: 0.01% HOCl, 1 second instilling, 15 second holding",superior
same,wound healing results of combination regimen compared with vacuum alone or aganocide alone,"[2]; Example 2: 0.01% HOCl, 5 second instilling, 5 minute holding",superior
